Measurements from PubChem BioAssay AID1272 (The Scripps Research Institute Molecular Screening Center, 2008).
Activity calls are given as the source filed them. The rule behind the calls is not given here.

Target: Neuropeptide Y receptor type 2 (Homo sapiens) (UniProt P49146)
Experiment: IC50 of human NPY-Y2 blockers – cell-based, dose response (AID 1272)
Settings: NPY-Y2 expressing cells, antagonist inhibition read-out

Sequence of Neuropeptide Y receptor type 2 (Homo sapiens) (P49146 whole entry, looked up): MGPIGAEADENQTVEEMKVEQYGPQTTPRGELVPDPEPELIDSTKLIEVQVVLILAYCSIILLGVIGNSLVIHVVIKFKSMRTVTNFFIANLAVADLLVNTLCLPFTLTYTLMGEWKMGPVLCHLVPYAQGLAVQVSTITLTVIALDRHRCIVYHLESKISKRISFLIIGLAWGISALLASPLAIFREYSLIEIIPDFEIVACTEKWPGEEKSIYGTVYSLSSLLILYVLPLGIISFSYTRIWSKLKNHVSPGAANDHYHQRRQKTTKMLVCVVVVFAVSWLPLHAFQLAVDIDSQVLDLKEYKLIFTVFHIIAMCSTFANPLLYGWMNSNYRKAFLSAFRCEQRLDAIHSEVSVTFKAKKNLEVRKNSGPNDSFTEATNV

IC50: < 35 µM (inactive)
SMILES: Cc1cccc(CSCCNC(=O)COc2ccc(Cl)cc2)c1
